Reference: publication PMC11761228, “Cinnamic Acid Compounds (p-Coumaric, Ferulic, and p-Methoxycinnamic Acid) as Effective Antibacterial Agents Against Colistin-Resistant Acinetobacter baumannii” (Antibiotics, 2025)
In brackets after ≈: the same amount, converted by molar mass. Several values for one entry are separate records, joined by “and”; a condition that tells them apart may be missing. Equal values may be shown once. Entries after “also recorded” stand apart in the source; their conditions may differ. Read-outs that look alike come from different tables or passages of the source.

Key:
COLR-Ab isolates [1] = assay: Broth microdilution MIC determination (CLSI); type: cell-based, Acinetobacter baumannii
Method: The broth microdilution method, as recommended by the CLSI, was used to determine the MIC values of COL, p-CA, FA, and p-MCA [46]. The serial two-fold dilutions of antimicrobial agents were prepared using 96-well microplates with cation-adjusted Mueller-Hinton Broth (MHB) (CAMHB, Merck KGaA, Darmstadt, Germany). Firstly, an initial concentration of 8192 µg/mL was chosen to determine the MIC values of all compounds against COLR-Ab isolates. […] The bacterial suspension was adjusted to the 0.5 McFarland standard and added to each well (final bacterial concentration: 5 × 10^5 colony forming units [CFU]/mL). Additionally, the microdilution plates included controls for bacterial growth (CAMHB + bacteria) and medium sterility (CAMHB). Microdilution plates were incubated at 35 ± 2 °C for 18–24 h. The MIC values were calculated by comparing the growth densities in the antibiotic-containing wells to those in the control wells used in each test set. Each experiment was conducted in triplicate.

HUVEC cells = assay: CCK-8 cell viability assay; type: cell-based, human; settings: 0.78125–200 μg/mL, 24 h
Method: 293T [HEK-293] (ATCC® CRL-1573), HUVEC (ATCC CRL-1730 ™, human umbilical vein endothelial cells) and Vero (ATCC® CCL-81™, African green monkey kidney epithelial cells) cells were used in this study. Cells were cultured in RPMI-1640 medium supplemented with 10% fetal bovine serum, 0.1 mM non-essential amino acids, […], 2 mM L-glutamine, and 10 μg/mL gentamicin in a humidified atmosphere of 5% CO2, 95% air at 37 °C. After growing to approximately 80% confluence, the cells were detached with 0.25% (w/v) trypsin-EDTA and then subcultured. The cells were stored in a deep freezer at −80 °C in a solution prepared with 95% medium and 5% DMSO.
Cell viability was assessed according to the manufacturer’s protocol using a Cell Counting Kit-8 (CCK-8) (KTA1020, Abbkine, Atlanta, GA, USA). The assay is based on the reduction of 2-(2-methoxy-4-nitrophenyl)-3-(4-nitrophenyl)-5-(2,4-disulfophenyl)-2H-tetrazolium monosodium salt (WST-8) by cellular mitochondrial dehydrogenase. Cells were seeded in 96-well plates at a final concentration of 5 × 10^3 cells/well in 100 μL complete culture medium and were allowed to attach for 24 h. […] Immediately after the treatment, cell viability in a single column was determined and recorded as time zero (T0). The plain medium with 1% FBS was used as a negative control, whereas ethanol was used as solvent control. Each treatment was performed in four well replicates. At the end of the incubation, the medium was gently aspirated to terminate the experiment, a total volume of 10 μL (5 mg/mL) of CCK-8 solution was added to each well and further incubated under the same conditions for 4 h. The absorbances at 450 nm were measured in a microplate reader (Thermo Labsystem, Waltham, MA, USA), using wells without cells as background. The sample readings were calculated by subtracting the average of background absorbances. […] Cell viability was calculated using the following formula: Cell viability (%) = (ODtreatment − ODblank)/(ODcontrol − ODblank) × 100% [78].

COLR-Ab4 isolate = assay: Cytoplasmic membrane permeability assay (A260 of supernatant); type: cell-based, Acinetobacter baumannii; settings: 3 h
Method: A cell membrane permeability assay was carried out in accordance with the methods described by Köse (2023). […] The bacteria were firstly incubated in MHB at 35 ± 2 °C overnight. Subsequently, the bacterial culture was centrifuged at 4000× g at 15 min, after which the pellet was washed twice with PBS. […] A suspension containing PBS and bacteria was used as a control. All samples were incubated at 35 ± 2 °C for 3 h, centrifuged at 13,400× g for 15 min, and the supernatant was harvested. The absorbance (A)260 of the supernatant was quantified using a UV-Vis spectrophotometer (Agilent Technologies, Santa Clara, CA, USA) to determine the amount of nucleic acid released from the cytoplasm. Each experiment was repeated three times.

COLR-Ab isolates [2] = assay: Checkerboard synergy test with COL; type: cell-based, Acinetobacter baumannii
Method: The checkerboard synergy test, based on microdilution, was carried out to investigate the combined activity of antibiotic and cinnamic acid derivatives. The effectiveness of the two antimicrobial drugs in combination was evaluated using a 96-well microplate for each strain. The medium employed was CAMHB. […] COL was added vertically, and cinnamic acids was added horizontally to the wells. The bacterial suspension was prepared to 0.5 McFarland standard density, and the final bacterial concentration was adjusted to 5 × 10^5 CFU/mL. In total, 10 µL of bacterial inoculum was added to each well. Bacterial growth control (CAMHB + bacteria) and medium sterility control (CAMHB) were also examined for each plate. The plates were incubated at 35 ± 2 °C for 18–24 h. Each experiment was conducted in triplicate.
The fractional inhibition concentrations (FIC) of all antimicrobial agents were calculated for the evaluation of the results in accordance with the following formulae:FICA = (MIC of A in combination/MIC of A alone)FICB = (MIC of B in combination/MIC of B alone)FICindex(FICI) = FICA + FICB
FICI ≤ 0.5 was considered to indicate synergism, […] ≤ 4 was considered to indicate indifference, and FICI > 4 was considered to indicate antagonism. In the formulae, the letter “A” is used to represent COL, while “B” is used to represent one of the compounds, p-CA, FA, and p-MCA.

SMILES	MIC (COLR-Ab isolates [1]; COLR-Ab1) [µg/mL]	MIC (COLR-Ab isolates [1]; COLR-Ab2) [µg/mL]	MIC (COLR-Ab isolates [1]; COLR-Ab3)	MIC (COLR-Ab isolates [1]; COLR-Ab4) [µg/mL]	MIC (COLR-Ab isolates [1]; COLR-Ab5) [µg/mL]	Cytotoxicity (doses with cytotoxic effects) (HUVEC cells)	Increase in absorbance values at 260 nm vs control (COLR-Ab4 isolate; COLR-Ab4, MIC concentration) [fold]	Increase in absorbance values at 260 nm vs control (COLR-Ab4 isolate; COLR-Ab4, MIC/2 concentration) [fold]	Increase in absorbance values at 260 nm vs control (COLR-Ab4 isolate; COLR-Ab4, MIC/4 concentration)	Interpretation of FICI for COL combined with the compound (COLR-Ab isolates [2]; COLR-Ab1)	Mean FICI for COL combined with the compound (COLR-Ab isolates [2]; COLR-Ab1)	Interpretation of FICI for COL combined with the compound (COLR-Ab isolates [2]; COLR-Ab2)	Mean FICI for COL combined with the compound (COLR-Ab isolates [2]; COLR-Ab2)	Interpretation of FICI for COL combined with the compound (COLR-Ab isolates [2]; COLR-Ab3)	Mean FICI for COL combined with the compound (COLR-Ab isolates [2]; COLR-Ab3)	Interpretation of FICI for COL combined with the compound (COLR-Ab isolates [2]; COLR-Ab4)	Mean FICI for COL combined with the compound (COLR-Ab isolates [2]; COLR-Ab4)	Interpretation of FICI for COL combined with the compound (COLR-Ab isolates [2]; COLR-Ab5)	Mean FICI for COL combined with the compound (COLR-Ab isolates [2]; COLR-Ab5)	other results
COc1cc(/C=C/C(=O)O)ccc1O [FA, ferulic acid]	1024 (≈ 5270 µM)	1024 (≈ 5270 µM)	1024 µg/mL (≈ 5270 µM)	512 (≈ 2640 µM)	1024 (≈ 5270 µM)	did not induce cytotoxic effects; also recorded: did not exhibit any cytotoxic effect	1.66	1.52	1.14 fold	S (synergistic effect)	0.15	S (synergistic effect)	0.15	S (synergistic effect)	0.15	I (indifferent effect)	0.51	S (synergistic effect)	0.12	MIC (COLR-Ab isolates [1]; all isolates except COLR-Ab4): 1024 µg/mL (≈ 5270 µM)
O=C(O)/C=C/c1ccc(O)cc1 [p-CA, p-coumaric acid]					128 (≈ 780 µM)	cytotoxicity in HUVEC cells at concentrations of 200 μg/mL (p < 0.01), 100 μg/mL (p < 0.05), and 50 μg/mL (p < 0.05); also recorded: cytotoxic at 200 (p < 0.01), 100 (p < 0.05), and 50 (p < 0.05) μg/mL	1.9	1.71	1.19 fold	S (synergistic effect)	0.16	S (synergistic effect)	0.19	S (synergistic effect)	0.16	S (synergistic effect)	0.15	S (synergistic effect)	0.28	MIC (COLR-Ab isolates [1]; Acinetobacter baumannii, COLR-Ab1, read-out: MIC): 256 µg/mL (≈ 1560 µM); MIC (COLR-Ab isolates [1]; Acinetobacter baumannii, COLR-Ab2, read-out: MIC): 256 µg/mL (≈ 1560 µM); MIC (COLR-Ab isolates [1]; Acinetobacter baumannii, COLR-Ab3, read-out: MIC): 256 µg/mL (≈ 1560 µM); MIC (COLR-Ab isolates [1]; Acinetobacter baumannii, COLR-Ab4, read-out: MIC): 256 µg/mL (≈ 1560 µM); MIC (COLR-Ab isolates [1]; Acinetobacter baumannii, COLR-Ab5, read-out: MIC): 128 µg/mL (≈ 780 µM); MIC (COLR-Ab isolates [1]; Acinetobacter baumannii, all isolates except COLR-Ab5, read-out: MIC): 256 µg/mL (≈ 1560 µM)
COc1ccc(C=CC(=O)O)cc1 [p-MCA, p-methoxycinnamic acid]	512 (≈ 2870 µM)	512 (≈ 2870 µM)	256 µg/mL and 128 µg/mL	256 (≈ 1440 µM)	128 (≈ 718 µM)	cytotoxicity in these cells at concentrations of 200, 100, and 50 μg/mL; also recorded: cytotoxic effects in HUVEC cells at doses of 200, 100, and 50 μg/mL	1.34	1.15	no statistically significant differences	S (synergistic effect)	0.09	S (synergistic effect)	0.09	S (synergistic effect)	0.27	S (synergistic effect)	0.14	S (synergistic effect)	0.27	
